{"source": "patent US20260166031A1", "about": "“Methods of Treating Lipedema and Lymphatic Disease of the Subcutaneous Tissue” (Celltaxis, LLC, priority 2023, published 2026)", "key": {"[1]": {"molecular_target": "T1, LTA4H epoxide hydrolase activity (Homo sapiens, UniProt P09960)", "T1 sequence (P09960 1-611)": "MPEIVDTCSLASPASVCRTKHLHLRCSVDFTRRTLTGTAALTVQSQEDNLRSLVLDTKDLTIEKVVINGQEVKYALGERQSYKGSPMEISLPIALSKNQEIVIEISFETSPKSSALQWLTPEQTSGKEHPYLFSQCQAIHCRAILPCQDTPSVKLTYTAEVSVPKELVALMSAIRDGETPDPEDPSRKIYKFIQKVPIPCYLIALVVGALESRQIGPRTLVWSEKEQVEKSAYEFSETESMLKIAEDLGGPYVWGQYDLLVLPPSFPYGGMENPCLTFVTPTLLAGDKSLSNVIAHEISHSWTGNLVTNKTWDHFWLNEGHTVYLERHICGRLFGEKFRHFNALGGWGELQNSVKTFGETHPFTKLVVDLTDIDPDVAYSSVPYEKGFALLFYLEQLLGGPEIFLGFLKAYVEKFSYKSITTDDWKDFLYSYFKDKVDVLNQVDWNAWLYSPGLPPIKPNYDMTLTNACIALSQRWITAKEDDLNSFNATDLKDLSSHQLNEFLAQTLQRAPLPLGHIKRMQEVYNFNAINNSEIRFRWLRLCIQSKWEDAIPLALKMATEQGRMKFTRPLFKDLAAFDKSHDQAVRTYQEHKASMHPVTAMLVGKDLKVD", "settings": "Table 3; read-out: Epoxide Hydrolase IC50 ± SEM; cited from earlier work"}, "[2]": {"molecular_target": "T2, LTA4H aminopeptidase activity (Homo sapiens, UniProt P09960)", "T2 sequence (P09960 1-611)": "T1 sequence (P09960 1-611)"}, "LTA4H": {"molecular_target": "T3, LTA4H (Homo sapiens, UniProt P09960)", "T3 sequence (P09960 1-611)": "T1 sequence (P09960 1-611)", "settings": "cited from earlier work"}, "LTB4 production": {"tested_on": "LTB4 production", "experiment": "Pharmacodynamic studies in humans, LTB4 production/inhibition", "format": "in vivo, human"}, "[3]": {"tested_on": "affected limb of lymphedema patients", "experiment": "Expanded access program, bioimpedance of affected limb", "format": "in vivo, human", "settings": "6 months vs baseline; p<0.01; higher bioimpedance = lower water content", "source_text": "Bioimpedance is a measure of water content, and a higher bioimpedance corresponds to a lower water content.\nFIGS. 5A, 5B and 5C are graphs presenting the same data as change in bioimpedance (as compared to baseline) over time."}, "[4]": {"tested_on": "sputum white blood cells and neutrophils of CF patients", "experiment": "Sputum cell counts in CF patients"}, "adult patients with CF": {"tested_on": "adult patients with CF", "settings": "48 weeks of treatment; Phase II adult CF patients; cited from earlier work"}, "neutrophil swarming": {"tested_on": "neutrophil swarming", "experiment": "Neutrophil swarming in vitro in response to factors in human CF sputum", "settings": "acebilustat 48 ng/mL, factors present in human CF sputum"}, "[5]": {"tested_on": "upper limb lymphedema patient", "experiment": "HEAL Phase 2 trial case report, dermal ultrasound of forearm", "format": "in vivo, human", "settings": "Stage II lymphedema subject", "source_text": "We present the early ultrasonographic responses of a participant who has completed 3 months of a total 6-month exposure. The primary endpoint for this trial involves quantitative analysis of dermal ultrasound skin changes.\nThese preliminary results lend great promise to the HEAL trial."}, "lymphedema patients [6]": {"tested_on": "lymphedema patients", "experiment": "Expanded access program, LymVAS quality of life", "format": "in vivo, human", "settings": "as early as 3 months, maintained at 6 months; 11 EAP patients", "description": "Quality of life indicators were also evaluated in the 11 EAP patients using LymVAS, a tool to interrogate lymphedema patient experience and is based on experience and practice from prior lymphedema trials. LymVAS uses a sliding visual analog scale, wherein patients move the slider along a line to indicate the degree of response to a question. LymVAS has two segments: 1."}, "[7]": {"tested_on": "affected limb of lymphedema patients", "experiment": "Expanded access program, limb volume", "format": "in vivo, human", "settings": "6 months; mean for 6 patients; p<0.03", "source_text": "At 6 months, a 6.7% reduction in limb volume was observed (mean for 6 patients; p<0.03)."}, "lymphedema patients [8]": {"tested_on": "lymphedema patients", "experiment": "Expanded access program, dermal ultrasound", "format": "in vivo, human"}, "[9]": {"tested_on": "LTB4 production in human whole blood", "experiment": "Human whole blood ex vivo LTB4 production", "format": "cell-based", "settings": "human whole blood tested ex vivo; read-out: approximate IC50, LTB4 production", "description": "The hydrolase-homogeneous time resolved fluorescence assay is a two-step assay that measures the hydrolysis of LTA4 to LTB4 by analyzing the amount of LTB4 produced. The first step involves the enzymatic conversion of LTA4 to LTB4 and the second step involves the quantification of the LTB4 formed with a homogeneous time resolved fluorescence assay. […] In the whole blood assay, the inhibitor compounds are tested for their ability to inhibit LTB4 release upon stimulation with calcium ionophore and the LTB4 levels in supernatants are measured by ELISA."}, "[10]": {"tested_on": "affected (lymphedematous) limb of lymphedema patients", "experiment": "Expanded access program, skin thickness of affected limb by caliper", "format": "in vivo, human", "settings": "p<0.0001", "description": "Skin thickness was measured by caliper.\nAt 6 months, a 43% reduction in skin thickness was observed (mean for 10 patients; p<0.0001)."}, "[11]": {"settings": "Table 3; read-out: Aminopeptidase IC50 ± SEM; cited from earlier work"}, "[12]": {"settings": "Table 2; read-out: Aminopeptidase IC50 ± SEM; cited from earlier work"}, "[13]": {"settings": "3 months of treatment vs baseline"}, "[14]": {"settings": "3 months of treatment vs baseline, listed as Acebilustat"}, "[15]": {"settings": "patient with right leg lymphedema, at 6 months"}}, "note": "Entries after “also recorded” stand apart in the source; their conditions may differ. Like-named read-outs stand apart in the source and are kept apart here.", "data": [{"compound": "O=c1c(-c2ccc(O)cc2)coc2c(O)c(O)ccc12", "note": "[Cmpd 12]", "values": [{"measurement": "IC50", "setting": "[1]", "value": "7.3 ± 0.8", "unit": "µM"}]}, {"compound": "O=c1c(-c2ccccc2)coc2cc(O)ccc12", "note": "[Cmpd 13]", "values": [{"measurement": "IC50", "setting": "[2]; [11]", "value": "> 100", "unit": "µM"}]}, {"compound": "COc1cc(O)cc(CCc2ccc(O)cc2)c1", "note": "[Cmpd 6]", "values": [{"measurement": "IC50", "setting": "[2]; [12]", "value": "> 100", "unit": "µM"}]}, {"compound": "COc1cc(O)cc(CCc2cccc(O)c2)c1", "note": "[Cmpd 8]", "values": [{"measurement": "IC50", "setting": "[2]; [12]", "value": "> 100", "unit": "µM"}]}, {"compound": "CC(C)C[C@H](NC(=O)[C@@H](O)[C@H](N)Cc1ccccc1)C(=O)O", "note": "[Ubenimex]", "values": [{"measurement": "potency at inhibiting LTB4 generation versus PGP degradation (selectivity class)", "setting": "LTA4H", "value": "non-selective LTA4H inhibitor"}]}, {"compound": "CCOc1cc(O)cc(CCc2ccc(O)cc2)c1", "note": "[Cmpd 7]", "values": [{"measurement": "IC50", "setting": "[2]; [12]", "value": "> 100", "unit": "µM"}]}, {"compound": "COc1cc(O)cc(CCc2ccccc2O)c1", "note": "[Cmpd 9]", "values": [{"measurement": "IC50", "setting": "[2]; [12]", "value": "> 100", "unit": "µM"}]}, {"compound": "O=c1c(-c2ccc(O)cc2)coc2cc(O)ccc12", "note": "[Cmpd 11]", "values": [{"measurement": "IC50", "setting": "[2]; read-out: Aminopeptidase IC50 ± SEM; Table 3; cited from earlier work", "value": "> 100", "unit": "µM"}]}, {"compound": "O=C(Cc1ccc(O)cc1)c1ccc(O)cc1O", "note": "[Cmpd 10]", "values": [{"measurement": "IC50", "setting": "[2]; [11]", "value": "> 100", "unit": "µM"}]}, {"compound": "O=C(O)c1ccc(CN2C[C@@H]3C[C@H]2CN3Cc2ccc(Oc3ccc(-c4ncco4)cc3)cc2)cc1", "note": "[acebilustat, 4-{[(1S,4S)-5-({4-[4-oxazol-2-yl-phenoxy]phenyl}methyl)-2,5-diazabicyclo[2.2.1]heptan-2-yl]methyl}benzoic acid]", "values": [{"measurement": "inhibition at 50 mg", "setting": "LTB4 production; 50 mg dose, human pharmacodynamic studies", "value": "≥ 63", "unit": "%"}, {"measurement": "inhibition at 100 mg", "setting": "LTB4 production; 100 mg dose, human pharmacodynamic studies", "value": "≥ 74", "unit": "%"}, {"measurement": "inhibition at 150 mg", "setting": "LTB4 production; 150 mg dose, human pharmacodynamic studies", "value": "≥ 82", "unit": "%"}, {"measurement": "LTB4 inhibition", "setting": "LTB4 production; 200 mg, human pharmacodynamic studies", "value": "at least 85%"}, {"measurement": "EC50", "setting": "LTB4 production; Homo sapiens, pharmacodynamic studies in humans, read-out: estimated in vivo EC50, inhibition of LTB4 production", "value": 0.093, "unit": "µg/mL"}, {"measurement": "bioimpedance (water content) of affected limb", "setting": "[3]", "value": "significantly lower water content; also recorded: significantly higher bioimpedance"}, {"measurement": "decrease of sputum white blood cells from Baseline", "setting": "[4]; 100 mg acebilustat group", "value": 60, "unit": "%"}, {"measurement": "decrease of sputum neutrophils", "setting": "[4]; 100 mg group", "value": 65, "unit": "%"}, {"measurement": "decrease of sputum neutrophils", "setting": "[4]; all treated patients (doses of 50 to 100 mg)", "value": 34, "unit": "%"}, {"measurement": "decrease of sputum white blood cells from Baseline", "setting": "[4]; all treated subjects (doses of 50 or 100 mg)", "value": 31, "unit": "%"}, {"measurement": "rate of pulmonary exacerbations", "setting": "adult patients with CF", "value": "showed promise in reducing the rate of pulmonary exacerbations"}, {"measurement": "risk of infection", "setting": "adult patients with CF", "value": "no evidence of increased risk of infection"}, {"measurement": "reduction of neutrophil swarming", "setting": "neutrophil swarming", "value": 80, "unit": "%"}, {"measurement": "demarcation of dermo-epidermal junction and subcutaneous fascial bands", "setting": "[5]; 3 months of treatment", "value": "enhanced demarcation"}, {"measurement": "dermal echogenicity by ultrasound", "setting": "[5]; [13]", "value": "reduced echogenicity"}, {"measurement": "dermal thickness by ultrasound", "setting": "[5]; [13]", "value": "reduced dermal thickness"}, {"measurement": "subcutaneous tissue echogenicity", "setting": "[5]; [13]", "value": "decreased"}, {"measurement": "dermal thickness by ultrasound", "setting": "[5]; [14]", "value": "reduced"}, {"measurement": "subcutaneous tissue echogenicity", "setting": "[5]; [14]", "value": "reduced"}, {"measurement": "LymVAS Total Change Score", "setting": "lymphedema patients [6]", "value": "significant improvement"}, {"measurement": "LymVAS quality of life Total Status Score", "setting": "lymphedema patients [6]", "value": "significant improvement"}, {"measurement": "reduction in limb volume", "setting": "[7]", "value": 6.7, "unit": "%"}, {"measurement": "reduction in subcutaneous thickness", "setting": "lymphedema patients [8]; different patient (FIG. 7), after 6 months of treatment", "value": 15.2, "unit": "%"}, {"measurement": "reduction of dermal thickness", "setting": "lymphedema patients [8]; [15]", "value": 3.7, "unit": "%"}, {"measurement": "reduction of subdermal thickness", "setting": "lymphedema patients [8]; [15]", "value": "over 20.2%"}, {"measurement": "reduction of total thickness", "setting": "lymphedema patients [8]; [15]", "value": 17.6, "unit": "%"}, {"measurement": "IC50", "setting": "[9]", "value": "~0.0308", "unit": "µg/mL"}, {"measurement": "skin thickness of affected limb", "setting": "[10]; 3 months after acebilustat treatment vs baseline, caliper", "value": "dramatically reduced; also recorded: significant decrease"}, {"measurement": "reduction in skin thickness", "setting": "[10]; 6 months vs baseline, mean for 10 patients", "value": 43, "unit": "%"}]}, {"compound": "CC(=O)Oc1ccc(/C=C/c2cc(OC(C)=O)cc(OC(C)=O)c2)cc1", "note": "[Cmpd 4]", "values": [{"measurement": "IC50", "setting": "[2]; Table 1; read-out: Aminopeptidase IC50 ± SEM; cited from earlier work", "value": "> 100", "unit": "µM"}]}]}
